# How the values were obtained:
# TLR2-TLR1 heterodimers = TLR2-TLR1 heterodimers (Homo sapiens, UniProt O60603+Q15399); experiment: Potency comparison of TLR2-TLR1 agonists (EC50); format: cell-based; details: order of magnitude only
# [1] = system: mouse bone marrow-derived dendritic cells (mBMDCs); experiment: mBMDC cytokine assay (wild-type cells; TNFα ELISA, cytometric bead array); format: cell-based; details: overnight, fractions or purified compounds at 50 μg/ml
# Description: Previously, to identify immunoregulatory small molecules from gut microbes, an unbiased functional assay was employed using cytokine release from murine bone marrow-derived dendritic cells (mBMDCs) in response to fractionated bacterial extracts (7). Dendritic cells, which are part of the innate immune system, detect pathogen-associated molecules and relay information to the adaptive immune system through the release of cytokines. It was reasoned that the same approach would identify immunomodulatory molecules produced by A. muciniphila.
# These assays were done as described previously (21). Femurs and tibias were collected from male or female wild-type, TLR2^−/−, or TLR4^−/− C57BL/6 mice that were at least 3-4 weeks old and preferably 7-12 weeks of age. The bone marrow was pushed from the bones using a needle and syringe of complete Dulbecco's Modified Eagle Medium (DMEM) (supplemented with Gibco GlutaMAX Supplement (35050061), Gibco Penicillin-Streptomycin (15140122), and 10% heat-inactivated fetal bovine serum (FBS)) and strained through a 70 μm nylon filter. […] Cells were counted and then plated at approximately 5 million cells per plate with ˜20-40 ng/ml RmGM-CSF (PreProTech 315-03). […] The resulting bone marrow derived dendritic cells (mBMDCs), were then scraped and counted again. […] Data was collected with NovoExpress 1.4.1 and analyzed using FlowJo v10.7.
# Chain of TLR2-TLR1 heterodimers (O60603 21-784): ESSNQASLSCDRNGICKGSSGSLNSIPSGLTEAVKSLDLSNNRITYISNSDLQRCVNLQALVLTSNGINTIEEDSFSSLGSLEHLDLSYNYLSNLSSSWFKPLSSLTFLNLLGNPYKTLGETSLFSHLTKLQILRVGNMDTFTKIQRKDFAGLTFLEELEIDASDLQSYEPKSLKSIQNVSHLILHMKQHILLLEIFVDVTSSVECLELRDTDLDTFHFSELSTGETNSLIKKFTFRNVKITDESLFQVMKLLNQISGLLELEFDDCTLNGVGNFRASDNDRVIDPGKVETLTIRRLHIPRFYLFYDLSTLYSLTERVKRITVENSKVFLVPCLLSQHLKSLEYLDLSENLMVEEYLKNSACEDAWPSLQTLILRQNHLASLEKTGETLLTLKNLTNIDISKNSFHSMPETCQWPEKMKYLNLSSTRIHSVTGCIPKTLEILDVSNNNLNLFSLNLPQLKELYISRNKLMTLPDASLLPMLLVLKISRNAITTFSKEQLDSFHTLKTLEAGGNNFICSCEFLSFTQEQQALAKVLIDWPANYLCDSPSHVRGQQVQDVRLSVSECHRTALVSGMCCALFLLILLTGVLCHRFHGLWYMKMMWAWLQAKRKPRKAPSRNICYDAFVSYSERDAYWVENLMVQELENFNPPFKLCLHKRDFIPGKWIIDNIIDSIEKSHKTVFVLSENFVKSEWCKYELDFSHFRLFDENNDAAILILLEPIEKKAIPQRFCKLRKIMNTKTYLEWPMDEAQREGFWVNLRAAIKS
# Chain of TLR2-TLR1 heterodimers (Q15399 25-786): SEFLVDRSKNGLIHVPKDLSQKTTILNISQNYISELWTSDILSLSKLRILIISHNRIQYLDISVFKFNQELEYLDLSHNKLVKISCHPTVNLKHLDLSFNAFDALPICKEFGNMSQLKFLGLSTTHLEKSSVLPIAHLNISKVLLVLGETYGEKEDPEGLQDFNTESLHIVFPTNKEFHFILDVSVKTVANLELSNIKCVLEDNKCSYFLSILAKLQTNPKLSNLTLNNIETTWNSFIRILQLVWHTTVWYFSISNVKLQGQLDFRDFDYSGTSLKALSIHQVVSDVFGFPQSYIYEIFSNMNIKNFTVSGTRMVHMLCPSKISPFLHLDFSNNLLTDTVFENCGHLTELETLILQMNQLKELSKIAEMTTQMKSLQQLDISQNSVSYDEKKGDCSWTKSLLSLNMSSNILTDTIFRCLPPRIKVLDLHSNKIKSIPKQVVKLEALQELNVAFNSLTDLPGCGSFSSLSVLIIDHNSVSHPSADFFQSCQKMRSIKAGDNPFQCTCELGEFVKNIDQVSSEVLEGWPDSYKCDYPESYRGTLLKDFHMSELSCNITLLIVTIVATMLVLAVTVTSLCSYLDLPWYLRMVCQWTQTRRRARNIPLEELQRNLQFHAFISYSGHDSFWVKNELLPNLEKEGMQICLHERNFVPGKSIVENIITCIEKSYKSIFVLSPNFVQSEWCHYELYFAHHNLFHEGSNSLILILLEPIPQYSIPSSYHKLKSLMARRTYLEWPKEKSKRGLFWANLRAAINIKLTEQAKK
Structure (SMILES),EC50 values (TLR2-TLR1 heterodimers),TNFα induction/production [1]
"CC[C@H](C)CCCCCCCCCCC(=O)OC[C@@H](COP(=O)(O)OCCN)OC(=O)CCCCCCCCCCCC(C)C [a15:0-i15:0 PE, 12-methyltetradecanoyl-13-methyltetradecanoyl-sn-glycero-3-phosphoethanolamine]",μM,
CCCCCCCCCCCCCC(=O)OC[C@H](COP(=O)(O)OCCN)OC(=O)CCCCCCCCCCCCC [n14:0-n14:0 PE],,no detectable TNFα induction
CCCCCCCCCCCCCCCC(=O)OCC(COP(=O)(O)OCCN)OC(=O)CCCCCCCCCCCCCCC (stereo not drawn) [n16:0-n16:0 PE],,no detectable TNFα induction
